Source: publication PMC11641365, “Evaluation of In Vitro Biological Activity of Flavanone/Chromanone Derivatives: Molecular Analysis of Anticancer Mechanisms in Colorectal Cancer” (International Journal of Molecular Sciences, 2024)

Columns and labels:
Format in all cases: cell-based, human
LoVo [1] = experiment: Autophagy induction, monodansylcadaverine (MDC) fluorescence; details: compound at IC50, 24 h, vs control
Procedure: (§1) Autophagy induction in cells treated with the tested drugs was determined by measuring Monodansylcadaverine (MDC; Sigma-Aldrich; St. Louis, MO, USA) fluorescence according to a modified method described by Vázquez. […] In the cell, MDC accumulates in lipid-rich cell membranes. It has been shown that MDC can be used as a dye for detecting autophagy, as it accumulates in autophagolysosomes as a result of interaction with membrane lipids.
(§2) Cells were seeded in black 96-well fluorometric microplates at a density of 10 × 10^3 cells/mL. […] Following compound incubation, the medium was removed, and the cell monolayers were washed twice with HBSS (140 mM NaCl, 5 mM KCl, 0.8 mM MgCl2, 1.8 mM CaCl2, 1 mM Na2HPO4, 10 mM HEPES, and 1% glucose). A solution of MDC at a final concentration of 50 μM was added to each well and incubated in a CO2 cell culture incubator at 37 °C for 15 min. After incubation with MDC, the probe was removed, and the cells were lysed with 50 μL of lysis buffer (10 mM TRIS-HCl; pH 8 containing 0.1% Triton X-100). After lysis, fluorescence was measured at an excitation wavelength of λex = 390 nm and an emission wavelength of λem = 460 nm using a Perkin-Elmer LS-5B spectrofluorometer (Waltham, MA, USA). In order to normalize the number of cells in individual samples, the amount of DNA was determined by adding 50 μL of EB (final concentration 0.2 mM) to each well after measuring the MCB fluorescence and measuring the EB fluorescence at an excitation wavelength of λex = 530 nm and an emission wavelength of λem = 590 nm. The results were calculated as the ratio of MDC fluorescence to EB fluorescence.

SW620 [2] = experiment: as above; details: compound at IC50, 24 h, vs control
Procedure: as §1, §2

SW620 [3] = experiment: Mitochondrial membrane potential (ΔΨm), JC-1 probe; details: compound at IC50, vs control
From the text: Changes in mitochondrial potential in cancer cells exposed to the tested derivatives were monitored using the fluorescent probe JC-1. In non-apoptotic cells, JC-1 aggregates emit red-orange fluorescence. During changes in mitochondrial membrane potential, such as those associated with the initiation of PCD stages (both hyperpolarization and depolarization of mitochondrial membranes), JC-1 is converted to monomers, emitting green fluorescence.
5,5,6,6-Tetrachloro-1,1,3,3-tetraethylbenzimidazolylcarbocyanine iodide (JC-1) is one of the most reliable fluorescent probes used to assess changes in mitochondrial membrane potential (ΔΨ). In living cells with intact mitochondrial membranes, the lipophilic, cationic dye JC-1 penetrates the negatively charged mitochondrial matrix as a monomer, where it forms fluorescent aggregates with red-orange fluorescence (λex = 514 nm, λem = 590). […] The fluorescence ratio of aggregates (λem = 590 nm) and monomers (λem = 529 nm)—590 nm/529 nm—reflects the level of damage to the mitochondrial membrane.
Cells were seeded in black 96-well fluorometric microplates at a density of 10 × 10^3 cells/mL. […] Following treatment, the medium was removed, and the cell monolayers were washed twice with HBSS (140 mM NaCl, 5 mM KCl, 0.8 mM MgCl2, 1.8 mM CaCl2, 1 mM Na2HPO4, 10 mM HEPES, and 1% glucose). Then, 50 μL of a JC-1 solution in HBSS was added to each well, and the cells were incubated for 30 min in the dark at 37 °C (final JC-1 concentration 5 μM). After removing the fluorescent dye and replacing it with fresh HBSS, fluorescence measurements were taken using a Perkin-Elmer LS-5B spectrofluorometer (Perkin-Elmer LS-5B spectrofluorometer, Waltham, MA, USA). The excitation and emission wavelengths for JC-1 monomers were 514 nm and 529 nm, respectively, while for aggregates, they were 514 nm and 590 nm. The results were expressed as a percentage change in the fluorescence ratio of JC-1 aggregates to JC-1 monomers compared to the control, which was set at 100%.

LoVo [4] = experiment: Hydrogen peroxide level, H2DCFDA probe; details: compound at IC50, 24 h; for Increase in H2O2 levels: vs control
Procedure: Cellular H2O2 levels were assessed using 2′,7′-dichlorodihydrofluorescein diacetate (H2DCFDA, Sigma-Aldrich, St. Louis, MO, USA), a well-established fluorogenic probe for intracellular hydrogen peroxide detection. H2DCFDA readily diffuses across the cell membrane and is subsequently hydrolyzed by intracellular esterases to non-fluorescent H2DCF. Oxidation of H2DCF by ROS generates highly fluorescent 2′,7′-dichlorofluorescein (DCF), which accumulates in the cytosol. […] The fluorescence intensity of DCF is directly proportional to the concentration of ROS within the cell.
Cells were seeded in black 96-well fluorometric microplates at a density of 10 × 10^3 cells/mL. […] Following compound incubation, the medium was removed, and the cell monolayers were washed twice with HBSS (140 mM NaCl, 5 mM KCl, 0.8 mM MgCl2, 1.8 mM CaCl2, 1 mM Na2HPO4, 10 mM HEPES, and 1% glucose). A volume of 50 µL of H2DCFDA solution in HBSS (final concentration 5 μM) was added to each well, and the cells were incubated for 30 min in the dark at 37 °C. After incubation with the H2DCFDA, fluorescence measurements were conducted using a Perkin-Elmer LS-5B spectrofluorometer (MA, USA) at the following excitation and fluorescence emission wavelengths: λex = 498 nm/λem = 522 nm. The fluorescence intensity of control cells was arbitrarily assigned a value of 100%. The results were expressed as percentages of control, calculated by comparing the fluorescence intensity ratio of the test samples to controls (100%). The fluorescence of samples was denoted as Δf in relation to the control.

Compound	Increase in MDC fluorescence intensity (autophagy) (LoVo [1])	Increase in MDC fluorescence intensity (autophagy) (SW620 [2])	Increase in mitochondrial membrane potential (hyperpolarization) (SW620 [3])	Increase in H2O2 levels (LoVo [4]) [%]	Decrease in MDC fluorescence intensity (LoVo [1]) [%]	Change in MDC fluorescence intensity (SW620 [2])	Change in MDC fluorescence intensity (LoVo [1])	Decrease in MDC fluorescence intensity (SW620 [2]) [%]	Change in mitochondrial membrane potential ΔΨm (SW620 [3])	Effect on H2O2 levels (LoVo [4])
O=C1/C(=C/c2ccccc2)COc2ccccc21 [Compound 1]	approximately 20%	approximately 40%	approximately 40%	10	–	–	–	–	–	–
COc1cccc(/C=C2/C(=O)c3ccccc3OC2c2ccccc2)c1 (stereo not drawn) [Compound 3]	–	–	~60%	10	20	no significant changes	–	–	–	–
O=C1/C(=C/c2ccccc2)C(c2ccccc2)Oc2ccccc21 (stereo not drawn) [Compound 5]	–	–	–	–	–	–	No significant changes	20	no statistically significant changes	did not affect H2O2 levels
